The test concerns Streptococcus pneumoniae. The test can be described thus: Antibacterial activity against Streptococcus pneumoniae by NCCLS method. In kind it is functional.

In ChEMBL document CHEMBL1933046, “Synthesis and antibacterial activity of a novel series of acylides active against community acquired respiratory pathogens” (2012) one finds MIC data, which are given here for 36 compounds.

The structures appear in SMILES notation. In brackets after ≈: the same amount, converted by molar mass. A value given as a limit tells only on which side of the number the result lay.

Broadly, the MIC is the lowest concentration found to suppress growth. As to `C#CCN(C)[C@H]1C[C@@H](C)O[C@@H](O[C@@H]2[C@@H](C)[C@H](OC(=O)Cc3ccccc3F)[C@@H](C)C(=O)O[C@H](CC)[C@@](C)(O)[C@H](O)[C@@H](C)C(=O)[C@H](C)C[C@@]2(C)OC)[C@@H]1O`, it took 0.5 µg/mL (≈ 0.667 µM) to inhibit growth (MIC). Next, `CC[C@H]1OC(=O)[C@H](C)[C@@H](OC(=O)Cc2ccc([N+](=O)[O-])cc2)[C@H](C)[C@@H](O[C@@H]2O[C@H](C)C[C@H](N(C)CC)[C@H]2O)[C@](C)(OC)C[C@@H](C)C(=O)[C@H](C)[C@@H](O)[C@]1(C)O`: 0.5 µg/mL (≈ 0.652 µM); `C#CCN(C)[C@H]1C[C@@H](C)O[C@@H](O[C@@H]2[C@@H](C)[C@H](OC(=O)Cc3ccccn3)[C@@H](C)C(=O)O[C@H](CC)[C@@](C)(O)[C@H](O)[C@@H](C)C(=O)[C@H](C)C[C@@]2(C)OC)[C@@H]1O`: 4 µg/mL (≈ 5.46 µM); `CC[C@H]1OC(=O)[C@H](C)[C@@H](OC(=O)Cc2cccc([N+](=O)[O-])c2)[C@H](C)[C@@H](O[C@@H]2O[C@H](C)C[C@H](N(C)CC)[C@H]2O)[C@](C)(OC)C[C@@H](C)C(=O)[C@H](C)[C@@H](O)[C@]1(C)O`: 0.25 µg/mL (≈ 0.326 µM). Then `C#CCN(C)[C@H]1C[C@@H](C)O[C@@H](O[C@@H]2[C@@H](C)[C@H](OC(=O)Cc3cccc(F)c3)[C@@H](C)C(=O)O[C@H](CC)[C@@](C)(O)[C@H](O)[C@@H](C)C(=O)[C@H](C)C[C@@]2(C)OC)[C@@H]1O`, with 2 µg/mL (≈ 2.67 µM); and `CC[C@H]1OC(=O)[C@H](C)[C@@H](OC(=O)Cc2ccc(F)cc2)[C@H](C)[C@@H](O[C@@H]2O[C@H](C)C[C@H](N(C)C3CC3)[C@H]2O)[C@](C)(OC)C[C@@H](C)C(=O)[C@H](C)[C@@H](O)[C@]1(C)O`, with 32 µg/mL (≈ 42.6 µM); and `C#CCN(C)[C@H]1C[C@@H](C)O[C@@H](O[C@@H]2[C@@H](C)[C@H](OC(=O)Cc3cccc([N+](=O)[O-])c3)[C@@H](C)C(=O)O[C@H](CC)[C@@](C)(O)[C@H](O)[C@@H](C)C(=O)[C@H](C)C[C@@]2(C)OC)[C@@H]1O`, with 1 µg/mL (≈ 1.29 µM). Next, `CC[C@H]1OC(=O)[C@H](C)[C@@H](OC(=O)Cc2ccccc2F)[C@H](C)[C@@H](O[C@@H]2O[C@H](C)C[C@H](N(C)Cc3ccccc3)[C@H]2O)[C@](C)(OC)C[C@@H](C)C(=O)[C@H](C)[C@@H](O)[C@]1(C)O`: 0.5 µg/mL (≈ 0.623 µM); `C=CCN(C)[C@H]1C[C@@H](C)O[C@@H](O[C@@H]2[C@@H](C)[C@H](OC(=O)Cc3ccc(F)cc3)[C@@H](C)C(=O)O[C@H](CC)[C@@](C)(O)[C@H](O)[C@@H](C)C(=O)[C@H](C)C[C@@]2(C)OC)[C@@H]1O`: 0.5 µg/mL (≈ 0.665 µM); `CC[C@H]1OC(=O)[C@H](C)[C@@H](OC(=O)Cc2cccc(F)c2)[C@H](C)[C@@H](O[C@@H]2O[C@H](C)C[C@H](N(C)CC3CC3)[C@H]2O)[C@](C)(OC)C[C@@H](C)C(=O)[C@H](C)[C@@H](O)[C@]1(C)O`: 8 µg/mL (≈ 10.4 µM).

As to `CC[C@H]1OC(=O)[C@H](C)[C@@H](OC(=O)Cc2cccc(F)c2)[C@H](C)[C@@H](O[C@@H]2O[C@H](C)C[C@H](N(C)CC)[C@H]2O)[C@](C)(OC)C[C@@H](C)C(=O)[C@H](C)[C@@H](O)[C@]1(C)O`, the MIC worked out at 0.125 µg/mL (≈ 0.169 µM).

`CC[C@H]1OC(=O)[C@H](C)[C@@H](OC(=O)Cc2cccc([N+](=O)[O-])c2)[C@H](C)[C@@H](O[C@@H]2O[C@H](C)C[C@H](N(C)C3CC3)[C@H]2O)[C@](C)(OC)C[C@@H](C)C(=O)[C@H](C)[C@@H](O)[C@]1(C)O` came in with a minimum inhibitory concentration (MIC) of 16 µg/mL (≈ 20.5 µM).

Compound `CC[C@H]1OC(=O)[C@H](C)[C@@H](OC(=O)Cc2cccc(F)c2)[C@H](C)[C@@H](O[C@@H]2O[C@H](C)C[C@H](N(C)Cc3ccc(F)cc3)[C@H]2O)[C@](C)(OC)C[C@@H](C)C(=O)[C@H](C)[C@@H](O)[C@]1(C)O` had an MIC of 2 µg/mL (≈ 2.44 µM). `C=CCN(C)[C@H]1C[C@@H](C)O[C@@H](O[C@@H]2[C@@H](C)[C@H](OC(=O)Cc3ccccc3F)[C@@H](C)C(=O)O[C@H](CC)[C@@](C)(O)[C@H](O)[C@@H](C)C(=O)[C@H](C)C[C@@]2(C)OC)[C@@H]1O`: 0.25 µg/mL (≈ 0.332 µM) was the least that counted as inhibitory (MIC). Then `CC[C@H]1OC(=O)[C@H](C)[C@@H](OC(=O)Cc2ccncc2)[C@H](C)[C@@H](O[C@@H]2O[C@H](C)C[C@H](N(C)C3CC3)[C@H]2O)[C@](C)(OC)C[C@@H](C)C(=O)[C@H](C)[C@@H](O)[C@]1(C)O`, with above 32 µg/mL. Next, `C=CCN(C)[C@H]1C[C@@H](C)O[C@@H](O[C@@H]2[C@@H](C)[C@H](OC(=O)Cc3cccc(F)c3)[C@@H](C)C(=O)O[C@H](CC)[C@@](C)(O)[C@H](O)[C@@H](C)C(=O)[C@H](C)C[C@@]2(C)OC)[C@@H]1O`: 0.125 µg/mL (≈ 0.166 µM); `CC[C@H]1OC(=O)[C@H](C)[C@@H](OC(=O)Cc2cccc(F)c2)[C@H](C)[C@@H](O[C@@H]2O[C@H](C)C[C@H](N(C)C3CC3)[C@H]2O)[C@](C)(OC)C[C@@H](C)C(=O)[C@H](C)[C@@H](O)[C@]1(C)O`: above 16 µg/mL; `CC[C@H]1OC(=O)[C@H](C)[C@@H](OC(=O)Cc2cccnc2)[C@H](C)[C@@H](O[C@@H]2O[C@H](C)C[C@H](N(C)CC)[C@H]2O)[C@](C)(OC)C[C@@H](C)C(=O)[C@H](C)[C@@H](O)[C@]1(C)O`: 0.5 µg/mL (≈ 0.692 µM). Next, `CC[C@H]1OC(=O)[C@H](C)[C@@H](OC(=O)Cc2ccncc2)[C@H](C)[C@@H](O[C@@H]2O[C@H](C)C[C@H](N(C)CC3CC3)[C@H]2O)[C@](C)(OC)C[C@@H](C)C(=O)[C@H](C)[C@@H](O)[C@]1(C)O`: 32 µg/mL (≈ 42.7 µM); `CC[C@H]1OC(=O)[C@H](C)[C@@H](OC(=O)Cc2cccnc2)[C@H](C)[C@@H](O[C@@H]2O[C@H](C)C[C@H](N(C)Cc3ccccc3)[C@H]2O)[C@](C)(OC)C[C@@H](C)C(=O)[C@H](C)[C@@H](O)[C@]1(C)O`: 0.25 µg/mL (≈ 0.318 µM); `C#CCN(C)[C@H]1C[C@@H](C)O[C@@H](O[C@@H]2[C@@H](C)[C@H](OC(=O)Cc3ccccc3[N+](=O)[O-])[C@@H](C)C(=O)O[C@H](CC)[C@@](C)(O)[C@H](O)[C@@H](C)C(=O)[C@H](C)C[C@@]2(C)OC)[C@@H]1O`: 2 µg/mL (≈ 2.57 µM). Take `CC[C@H]1OC(=O)[C@H](C)[C@@H](OC(=O)Cc2ccc([N+](=O)[O-])cc2)[C@H](C)[C@@H](O[C@@H]2O[C@H](C)C[C@H](N(C)CC3CC3)[C@H]2O)[C@](C)(OC)C[C@@H](C)C(=O)[C@H](C)[C@@H](O)[C@]1(C)O`: 1 µg/mL (≈ 1.26 µM) was the least that counted as inhibitory (MIC). Then `CC[C@H]1OC(=O)[C@H](C)[C@@H](OC(=O)Cc2ccccn2)[C@H](C)[C@@H](O[C@@H]2O[C@H](C)C[C@H](N(C)C3CC3)[C@H]2O)[C@](C)(OC)C[C@@H](C)C(=O)[C@H](C)[C@@H](O)[C@]1(C)O`, with above 32 µg/mL; and `CC[C@H]1OC(=O)[C@H](C)[C@@H](OC(=O)Cc2ccc(F)cc2)[C@H](C)[C@@H](O[C@@H]2O[C@H](C)C[C@H](N(C)CC)[C@H]2O)[C@](C)(OC)C[C@@H](C)C(=O)[C@H](C)[C@@H](O)[C@]1(C)O`, with 0.5 µg/mL (≈ 0.676 µM); and `CC[C@H]1OC(=O)[C@H](C)[C@@H](OC(=O)Cc2ccccn2)[C@H](C)[C@@H](O[C@@H]2O[C@H](C)C[C@H](N(C)CC3CC3)[C@H]2O)[C@](C)(OC)C[C@@H](C)C(=O)[C@H](C)[C@@H](O)[C@]1(C)O`, with above 16 µg/mL. Next, `CC[C@H]1OC(=O)[C@H](C)[C@@H](OC(=O)Cc2ccc(F)cc2)[C@H](C)[C@@H](O[C@@H]2O[C@H](C)C[C@H](N(C)Cc3ccccc3)[C@H]2O)[C@](C)(OC)C[C@@H](C)C(=O)[C@H](C)[C@@H](O)[C@]1(C)O`: 1 µg/mL (≈ 1.25 µM); `CC[C@H]1OC(=O)[C@H](C)[C@@H](OC(=O)Cc2ccccn2)[C@H](C)[C@@H](O[C@@H]2O[C@H](C)C[C@H](N(C)CC)[C@H]2O)[C@](C)(OC)C[C@@H](C)C(=O)[C@H](C)[C@@H](O)[C@]1(C)O`: 0.25 µg/mL (≈ 0.346 µM); `C#CCN(C)[C@H]1C[C@@H](C)O[C@@H](O[C@@H]2[C@@H](C)[C@H](OC(=O)Cc3cccnc3)[C@@H](C)C(=O)O[C@H](CC)[C@@](C)(O)[C@H](O)[C@@H](C)C(=O)[C@H](C)C[C@@]2(C)OC)[C@@H]1O`: 2 µg/mL (≈ 2.73 µM). Next, `C=CCN(C)[C@H]1C[C@@H](C)O[C@@H](O[C@@H]2[C@@H](C)[C@H](OC(=O)Cc3ccccc3[N+](=O)[O-])[C@@H](C)C(=O)O[C@H](CC)[C@@](C)(O)[C@H](O)[C@@H](C)C(=O)[C@H](C)C[C@@]2(C)OC)[C@@H]1O`: 0.25 µg/mL (≈ 0.321 µM); `C=CCN(C)[C@H]1C[C@@H](C)O[C@@H](O[C@@H]2[C@@H](C)[C@H](OC(=O)Cc3ccncc3)[C@@H](C)C(=O)O[C@H](CC)[C@@](C)(O)[C@H](O)[C@@H](C)C(=O)[C@H](C)C[C@@]2(C)OC)[C@@H]1O`: 0.5 µg/mL (≈ 0.68 µM). `CC[C@H]1OC(=O)[C@H](C)[C@@H](OC(=O)Cc2ccccc2F)[C@H](C)[C@@H](O[C@@H]2O[C@H](C)C[C@H](N(C)CC)[C@H]2O)[C@](C)(OC)C[C@@H](C)C(=O)[C@H](C)[C@@H](O)[C@]1(C)O`: the MIC was found to be 0.25 µg/mL (≈ 0.338 µM).

Take `CC[C@H]1OC(=O)[C@H](C)[C@@H](OC(=O)Cc2ccccc2F)[C@H](C)[C@@H](O[C@@H]2O[C@H](C)C[C@H](N(C)CC3CC3)[C@H]2O)[C@](C)(OC)C[C@@H](C)C(=O)[C@H](C)[C@@H](O)[C@]1(C)O`: the minimum inhibitory concentration (MIC) is 8 µg/mL (≈ 10.4 µM). Next, `C=CCN(C)[C@H]1C[C@@H](C)O[C@@H](O[C@@H]2[C@@H](C)[C@H](OC(=O)Cc3cccnc3)[C@@H](C)C(=O)O[C@H](CC)[C@@](C)(O)[C@H](O)[C@@H](C)C(=O)[C@H](C)C[C@@]2(C)OC)[C@@H]1O`: 0.25 µg/mL (≈ 0.34 µM); `CC[C@H]1OC(=O)[C@H](C)[C@@H](OC(=O)Cc2ccc([N+](=O)[O-])cc2)[C@H](C)[C@@H](O[C@@H]2O[C@H](C)C[C@H](N(C)C3CC3)[C@H]2O)[C@](C)(OC)C[C@@H](C)C(=O)[C@H](C)[C@@H](O)[C@]1(C)O`: above 32 µg/mL. Then `CC[C@H]1OC(=O)[C@H](C)[C@@H](OC(=O)Cc2cccc(F)c2)[C@H](C)[C@@H](O[C@@H]2O[C@H](C)C[C@H](N(C)Cc3ccccc3)[C@H]2O)[C@](C)(OC)C[C@@H](C)C(=O)[C@H](C)[C@@H](O)[C@]1(C)O`, with 1 µg/mL (≈ 1.25 µM). Then `CC[C@H]1OC(=O)[C@H](C)[C@@H](OC(=O)Cc2ccccc2[N+](=O)[O-])[C@H](C)[C@@H](O[C@@H]2O[C@H](C)C[C@H](N(C)CC3CC3)[C@H]2O)[C@](C)(OC)C[C@@H](C)C(=O)[C@H](C)[C@@H](O)[C@]1(C)O`, with 1 µg/mL (≈ 1.26 µM).
